The values that follow come from ChEMBL document CHEMBL3853319, “Tyrosine Kinase Inhibitors. 20. Optimization of Substituted Quinazoline and Pyrido[3,4-d]pyrimidine Derivatives as Orally Active, Irreversible Inhibitors of the Epidermal Growth Factor Receptor Family” (J Med Chem, 2016).

The nature of data set [1]: in vivo. Particulars: beagle, dog, po, 50 mg/kg.
Data set [2] can be described thus: in vivo. Particulars: beagle, dog, iv, 5 mg/kg.
Data set [3] is described as follows: Half life in overnight fasted cynomolgus monkey at 25 mg/kg/day, po by LC/MS analysis. Type of data set: ADME, organism-based, Macaca fascicularis. Particulars: in vivo.
Data set [4] can be described thus: Half life in overnight fasted cynomolgus monkey at 5 mg/kg/day, iv by LC/MS analysis. Type of data set: ADME, organism-based, Macaca fascicularis. Particulars: in vivo.
Data set [5] is described as follows: in vivo. Particulars: cynomolgus monkey, po, 25 mg/kg.
A short description of data set [6]: in vitro. Particulars: human, liver microsomes.
Data set [7] can be described thus: in vivo. Particulars: cynomolgus monkey, po, 25 mg/kg. This is another data set of the same source.
The nature of data set [8]: in vivo. Particulars: Sprague-Dawley, rat, po, 50 mg/kg.
Data set [9] is described as follows: in vivo. Particulars: cynomolgus monkey, po, 25 mg/kg. The source holds these as a separate data set.
Data set [10] is described as follows: in vivo. Particulars: Sprague-Dawley, rat, po, 50 mg/kg. This is another data set of the same source.
The nature of data set [11]: in vivo. Particulars: Sprague-Dawley, rat, iv, 5 mg/kg.
Data set [12] in a line: in vivo. Particulars: beagle, dog, iv, 5 mg/kg. The source holds these as a separate data set.
A short description of data set [13]: in vitro. Particulars: human, hepatocytes.
A short description of data set [14]: Half life in Beagle dog at 50 mg/kg/day, po by LC/MS analysis. Type of data set: ADME, organism-based, Canis lupus familiaris. Particulars: in vivo.
The nature of data set [15]: in vivo. Particulars: Sprague-Dawley, rat, iv, 5 mg/kg. This is another data set of the same source.
Data set [16] can be described thus: in vitro. Particulars: rat, liver microsomes. Background: Liver microsomes are vesicles of endoplasmic reticulum, rich in cytochrome P450 enzymes.
A short description of data set [17]: in vitro. Particulars: rat, hepatocytes.
Data set [18] is described as follows: in vivo. Particulars: Sprague-Dawley, rat, po, 50 mg/kg. The source holds these as a separate data set.
Data set [19] in a line: in vivo. Particulars: Sprague-Dawley, rat, po, 50 mg/kg. The source holds these as a separate data set.
A short description of data set [20]: in vivo. Particulars: beagle, dog, iv, 5 mg/kg. This is another data set of the same source.
Data set [21] is described as follows: Half life in human plasma at 30 to 60 mg. The class given is ADME, cell-free.
A short description of data set [22]: in vivo. Particulars: Sprague-Dawley, rat, iv, 5 mg/kg. The source holds these as a separate data set.
Data set [23] in a line: in vivo. Particulars: cynomolgus monkey, iv, 5 mg/kg.
The nature of data set [24]: Terminal half life in patient plasma with advanced solid tumor administered at 75 mg. Type of data set: ADME. Particulars: human, read-out: beta t1/2 (converted).

Bounds are passed on as bounds.

The AUC is the area under the concentration-time curve, a measure of exposure. As a reminder, the bioavailability is dose-corrected exposure relative to a reference, in per cent. For orientation: Cmax means the maximum level reached in the sampled fluid or tissue. As a reminder, the Vd is a proportionality between amount in the body and measured concentration, not a real space. Broadly, the clearance is the rate of elimination divided by the concentration. As for `COc1cc2ncnc(Nc3ccc(F)c(Cl)c3)c2cc1NC(=O)/C=C/CN1CCCCC1` [DACOMITINIB ANHYDROUS], the AUC at 144 h in the data set “in vivo [1]” was determined as 25200 ng·h/mL; in the data set “in vivo [7]”, 5400 ng·h/mL; in the data set “in vivo [10]” it was 20500 ng·h/mL; in “in vivo [15]” it was 2100 ng·h/mL. In addition, the half-life in “in vivo [2]” was 15.9 h; in [3], 12.1 h; in [4] it was 5.7 h; in “in vivo [8]”, 19.4 h; in data set [14], 20.9 h; in [21], 59 h. The molecule also gave a half-life in the data set “in vivo [22]” of 9.8 h. Further, the figures for the bioavailability at 144 h in “in vivo [5]” and in “in vivo [18]” were 56% and 80%, respectively. For the same molecule, the half-life at 5 µM in “in vitro [6]” and in “in vitro [16]” was more than 0.667 h each time. Further, the Cmax at 144 h came to 220 ng/mL in “in vivo [9]” and 630 ng/mL in the data set “in vivo [19]”. Also, the volume of distribution (Vd) at 144 h in “in vivo [11]” was determined as 34.2 L/kg; in the data set “in vivo [20]”, 28 L/kg. The figures for the clearance at 144 h in “in vivo [12]” and in the data set “in vivo [23]” were 24.4 mL/min/kg and 44.1 mL/min/kg, respectively. Further, the half-life at 1 µM in the data set “in vitro [13]” worked out at 4.15 h; in the data set “in vitro [17]”, 2.38 h.

On to `COc1cc2ncnc(Nc3ccc(F)c(Cl)c3)c2cc1OCCCN1CCOCC1` [GEFITINIB], for which the half-life at 5 µM in the data set “in vitro [6]” and in “in vitro [16]” was more than 0.667 h in each case. The half-life at 1 µM in the data set “in vitro [13]” is 3.75 h; in “in vitro [17]”, 1.68 h.

As for `CCOc1cc2ncc(C#N)c(Nc3ccc(F)c(Cl)c3)c2cc1NC(=O)/C=C/CN(C)C` [PELITINIB], the half-life in data set [24] was 21.7 h.
